Key:
[1] = tested on: human colon cancer (HCT116) cells; experiment: MTT cytotoxicity assay, HCT116; assay type: cell-based; settings: five doses 0.01-100 µM
Method: (§1) The cytotoxicity of the desired compounds was assessed through MTT assay against two human cancer cell lines, human breast cancer (MCF-7) and colon cancer (HCT116), and one normal cell line, human embryonic kidney 293T (HEK293T). CPT and etoposide (VP-16) were used as positive controls. The compounds were incubated with cells for 72 h in a five-dose assay ranging from 0.01 to 100 µΜ. After the drug treatments, MTT solution was added to test the percentage growth of tumor cells.
(§2) The cells were cultured on RPMI 1640 Medium at 37 °C in a humidified atmosphere with 5% CO2. The cytotoxicities of the target compounds were evaluated through MTT assay against two human cancer cell lines (human breast cancer MCF-7 and human colon cancer HCT116). For the compound treatment experiments, the cancer cells were treated with the compounds (pre-dissolved in DMSO) via a five-dose assay ranging from 10^−8 to 10^−4 M. After incubation for 72 h at 37 °C, MTT solution (20 μL, 2.5 mg/mL) in PBS (PBS without MTT as the blank) was added to each well of the culture plate. After incubation for 4 h, the formazan crystal formed in the well was dissolved in 100 μL of DMSO for an optical density of 570 nm. The IC50 value was calculated using nonlinear regression analysis (GraphPad Prism). Every experiment was conducted three times, independently.

[2] = tested on: human breast cancer (MCF-7) cells; experiment: MTT cytotoxicity assay, MCF-7; assay type: cell-based; settings: five doses 0.01-100 µM
Method: as §1, §2

calf thymus Top1 = target: T1, calf thymus Top1 (Bos taurus, UniProt F1MN93); experiment: Top1-mediated DNA relaxation assay; assay type: biochemical; settings: compounds at 50 µM; semi-quantitative, relative to CPT at 50 µM
T1 construct: 1 unit of calf thymus Top1; from tissue; host or cells: calf thymus
T1 sequence (F1MN93 1-767): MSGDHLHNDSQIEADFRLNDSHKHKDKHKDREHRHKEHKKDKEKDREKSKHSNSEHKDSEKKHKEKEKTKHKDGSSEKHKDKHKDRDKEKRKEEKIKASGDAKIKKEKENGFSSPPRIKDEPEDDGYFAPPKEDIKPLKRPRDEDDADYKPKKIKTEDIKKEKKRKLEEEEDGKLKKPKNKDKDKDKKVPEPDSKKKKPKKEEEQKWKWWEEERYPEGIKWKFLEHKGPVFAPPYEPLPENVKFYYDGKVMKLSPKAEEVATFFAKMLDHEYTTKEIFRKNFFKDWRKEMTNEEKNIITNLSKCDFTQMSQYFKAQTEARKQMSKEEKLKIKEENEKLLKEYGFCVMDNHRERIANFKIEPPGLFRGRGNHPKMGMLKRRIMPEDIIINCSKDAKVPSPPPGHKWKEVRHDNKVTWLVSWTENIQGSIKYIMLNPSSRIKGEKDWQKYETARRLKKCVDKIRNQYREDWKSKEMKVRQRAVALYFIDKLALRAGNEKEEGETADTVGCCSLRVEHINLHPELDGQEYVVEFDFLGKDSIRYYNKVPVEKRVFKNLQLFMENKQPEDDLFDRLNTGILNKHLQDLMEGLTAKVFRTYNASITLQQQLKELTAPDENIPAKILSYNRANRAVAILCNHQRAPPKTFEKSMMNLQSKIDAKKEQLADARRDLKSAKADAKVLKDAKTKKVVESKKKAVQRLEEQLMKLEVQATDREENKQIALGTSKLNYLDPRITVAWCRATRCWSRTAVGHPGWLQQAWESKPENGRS
Method: The synthesized compounds 6–37 were evaluated for Top1 inhibitory activity by measurement of the Top1-mediated DNA relaxation assay. The compounds were tested at 50 µΜ using CPT as positive control, and the results were semi-quantitatively expressed relative to CPT at 50 µΜ as follows: ++++, more than 80% activity; +++, between 40% and 79% activity; ++, between 10% and 39% activity; +, less than 10% activity. […] In phenyl A, the 4-position halogen (X) remarkably affected the inhibition against Top1. […] In phenyl B, the introduction of substituents at the 3-position was beneficial for the Top1 inhibition, and the derivatives presented good tolerance of the 3-substituents, since compounds 8 (++++) and 13 (+++) with electron-donating -Me or -OMe and also compound 19 (+++) with electron-withdrawing -Br had good inhibition against Top1. For substituents at the 4-position, the strong electron-withdrawing -CF3 (10, +++) and -F (15, +++) increased the Top1 inhibitory activity compared to compound 6 (R = H), while the weak electron-withdrawing -Cl (17, +) and the electron-donating -Me (9, +) and -OMe (14, +) decreased the activity, with the exception of tert-Bu (11, +++).
As previously mentioned, compound 8 had the best inhibition activity against Top1, and therefore was selected for further investigation. A semi-quantitative Top1-mediated relaxation assay of compound 8 was performed at concentrations of 0.2, 1, 5, 25 and 125 μM.
The compounds were tested for their Top1 inhibitory activity using a Top1-mediated relaxation assay. Briefly, the reaction mixture (20 μL) with 0.5 μg of supercoiled pBR322 DNA in relaxation buffer (10 mM Tris-HCl, pH 7.5, 50 mM KCl, 5 mM MgCl2, 15 μg/mL BSA, 40 μg/mL DTT) was incubated with 1 unit of calf thymus Top1 in the absence or in the presence of the compound for 30 min at 37 °C. Then, the reaction solution was added with 6 × loading buffer (4 μL) and was analyzed using a 0.8% agarose gel in TBE buffer at 4.6 V/cm for 1.5 h. Gel was stained with 1 × GelRed for 30 min and subsequently visualized with a UV transilluminator.

Structure (SMILES) | IC50 ([1]; Homo sapiens, HCT-116, 72 h) [µM] | IC50 ([2]; Homo sapiens, MCF7, 72 h) [µM] | melting point [°C] | Relaxation Assay (Top1 inhibitory activity) (calf thymus Top1) | IC50 ([1]; 72 h) [µM] | IC50 ([2]; 72 h) [µM]
COc1ccccc1/C=C/c1nc(-c2ccc(Cl)cc2)cs1 [Compound 24, (E)-4-(4-chlorophenyl)-2-(2-methoxystyryl)thiazole] | 49.4 ± 3.49 | > 100 | 93 to 95 |  |  | 
COc1ccccc1/C=C/c1nc(-c2ccc(F)cc2)cs1 [Compound 12, (E)-2-(2-methoxystyryl)-4-(4-fluorophenyl)thiazole] | 17.8 ± 1.16 | 49.5 ± 9.08 | 73 to 74 |  |  | 
Cc1cccc(/C=C/c2nc(-c3ccc(Br)cc3)cs2)c1 [Compound 26, (E)-4-(4-bromophenyl)-2-(3-methylstyryl)thiazole] |  | 10.8 ± 2.42 | 174 to 176 |  |  | 
Oc1cccc(/C=C/c2nc(-c3ccc(Br)cc3)cs2)c1 [Compound 34, (E)-3-(2-(4-(4-bromophenyl)thiazol-2-yl)vinyl)phenol] | 9.99 ± 0.19 | 22.8 ± 1.4 |  | + (less than 10% activity) |  | 
Fc1ccc(-c2csc(/C=C/c3ccc(Cl)cc3)n2)cc1 [Compound 17, (E)-2-(4-chlorostyryl)-4-(4-fluorophenyl)thiazole] | 27.1 ± 0.41 | 43.3 ± 1.42 | 171 to 173 | + (less than 10% activity) |  | 
Fc1ccc(-c2csc(/C=C/c3ccccc3Cl)n2)cc1 [Compound 16, (E)-2-(2-chlorostyryl)-4-(4-fluorophenyl)thiazole] | 8.42 ± 1.1 | 15.2 ± 1.18 | 97 to 98 |  |  | 
COc1cccc(/C=C/c2nc(-c3ccc(F)cc3)cs2)c1 [Compound 13, (E)-2-(3-methoxystyryl)-4-(4-fluorophenyl)thiazole] | < 5 | < 10 | 115 to 116 |  | 4.99 ± 0.8 | 9.85 ± 0.47
CC(C)=CCOc1ccc(/C=C/c2nc(-c3ccc(Br)cc3)cs2)cc1 [Compound 37, (E)-4-(4-bromophenyl)-2-(4-((3-methylbut-2-en-1-yl)oxy)styryl)thiazole] | > 100 | > 100 | 134 to 135 | + (less than 10% activity) |  | 
Fc1ccc(-c2csc(/C=C/c3ccccc3Br)n2)cc1 [Compound 18, (E)-2-(2-bromostyryl)-4-(4-fluorophenyl)thiazole] | 12.3 ± 1.1 | 20 ± 2.07 | 94 to 95 |  |  | 
FC(F)(F)c1ccc(/C=C/c2nc(-c3ccc(Br)cc3)cs2)cc1 [Compound 27, (E)-4-(4-bromophenyl)-2-(4-(trifluoromethyl)styryl)thiazole] | 34.9 ± 5.66 | 24.3 ± 5.62 | 102 to 103 |  |  | 
Cc1ccccc1/C=C/c1nc(-c2ccc(Cl)cc2)cs1 [Compound 21, (E)-4-(4-chlorophenyl)-2-(2-methylstyryl)thiazole] | 41.7 ± 1.92 | 39.5 ± 1.06 | 83 to 84 | + (less than 10% activity) |  | 
Fc1ccc(-c2csc(/C=C/c3ccc(C(F)(F)F)cc3)n2)cc1 [Compound 10, (E)-2-(4-(trifluoromethyl)styryl)-4-(4-fluorophenyl)thiazole] | 22.6 ± 2.41 | 17.3 ± 1.62 | 111 to 113 |  |  | 
Fc1ccc(-c2csc(/C=C/c3cccc(Br)c3)n2)cc1 [Compound 19, (E)-2-(3-bromostyryl)-4-(4-fluorophenyl)thiazole] | 6.95 ± 0.33 | 11.5 ± 1.74 | 142 to 144 |  |  | 
COc1cc([C@@H]2c3cc4c(cc3[C@@H](O[C@@H]3O[C@@H]5CO[C@@H](C)O[C@H]5[C@H](O)[C@H]3O)[C@H]3COC(=O)[C@H]23)OCO4)cc(OC)c1O [vp-16, etoposide, reference compound] | 18.9 ± 1.35 | 24.7 ± 3.12 |  |  |  | 
Fc1ccc(/C=C/c2nc(-c3ccc(Br)cc3)cs2)cc1 [Compound 29, (E)-4-(4-bromophenyl)-2-(4-fluorostyryl)thiazole] | 63.2 ± 6.17 | > 100 | 176 to 178 |  |  | 
Fc1ccc(-c2csc(/C=C/c3ccccc3)n2)cc1 [Compound 6, (E)-4-(4-fluorophenyl)-2-styrylthiazole] | 5.78 ± 1.89 | 22.2 ± 5.01 | 129 to 130 |  |  | 
Fc1ccc(/C=C/c2nc(-c3ccc(F)cc3)cs2)cc1 [Compound 15, (E)-2-(4-fluorostyryl)-4-(4-fluorophenyl)thiazole] | 10.2 ± 1.07 |  | 147 to 149 |  |  | 
CC(C)=CCOc1cccc(/C=C/c2nc(-c3ccc(Br)cc3)cs2)c1 [Compound 36, (E)-4-(4-bromophenyl)-2-(3-((3-methylbut-2-en-1-yl)oxy)styryl)thiazole] | > 100 | > 100 | 122 to 123 |  |  | 
CC(C)(C)c1ccc(/C=C/c2nc(-c3ccc(Br)cc3)cs2)cc1 [Compound 28, (E)-4-(4-bromophenyl)-2-(4-(tert-butyl)styryl)thiazole] |  |  | 89 to 90 | + (less than 10% activity) |  | 
Cc1cccc(/C=C/c2nc(-c3ccc(Cl)cc3)cs2)c1 [Compound 22, (E)-4-(4-chlorophenyl)-2-(3-methylstyryl)thiazole] | > 100 | > 100 | 133 to 134 |  |  | 
Cc1ccccc1/C=C/c1nc(-c2ccc(F)cc2)cs1 [Compound 7, (E)-2-(2-methylstyryl)-4-(4-fluorophenyl)thiazole] | 6.47 ± 0.62 | 31.4 ± 4.21 | 74 to 75 |  |  | 
